Results from publication PMC4977651, “Molecular features of biguanides required for targeting of mitochondrial respiratory complex I and activation of AMP-kinase” (BMC Biology, 2016).
Read-outs that look alike come from different tables or passages of the source.

Columns and labels:
[1] = target: bovine heart mitochondrial membranes (complex I) (Bos taurus, UniProt P03887+P03898+P17694+P42026); assay: NADH:O2 oxidoreduction by bovine heart mitochondrial membranes (complexes I-III-IV); type: biochemical
Sequence of bovine heart mitochondrial membranes (complex I) (P42026 38-216): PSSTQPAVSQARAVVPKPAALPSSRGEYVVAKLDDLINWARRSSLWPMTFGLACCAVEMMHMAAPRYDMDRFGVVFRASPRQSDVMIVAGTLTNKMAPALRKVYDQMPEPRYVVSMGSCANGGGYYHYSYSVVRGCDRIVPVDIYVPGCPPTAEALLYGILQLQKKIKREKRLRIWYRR
Sequence of bovine heart mitochondrial membranes (complex I) (P17694 34-463): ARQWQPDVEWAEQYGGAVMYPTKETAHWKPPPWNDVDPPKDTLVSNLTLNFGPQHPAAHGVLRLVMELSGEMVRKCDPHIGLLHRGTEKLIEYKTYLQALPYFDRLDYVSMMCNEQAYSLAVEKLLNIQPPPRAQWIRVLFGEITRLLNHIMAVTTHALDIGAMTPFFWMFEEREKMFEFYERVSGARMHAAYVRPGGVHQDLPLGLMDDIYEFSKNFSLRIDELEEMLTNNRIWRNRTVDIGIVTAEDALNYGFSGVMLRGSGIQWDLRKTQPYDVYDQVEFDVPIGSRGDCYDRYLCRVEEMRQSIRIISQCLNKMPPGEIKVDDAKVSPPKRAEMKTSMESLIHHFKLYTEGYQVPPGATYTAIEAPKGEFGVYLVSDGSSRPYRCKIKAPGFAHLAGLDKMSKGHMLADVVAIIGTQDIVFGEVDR
Sequence of bovine heart mitochondrial membranes (complex I) (P03887 whole entry): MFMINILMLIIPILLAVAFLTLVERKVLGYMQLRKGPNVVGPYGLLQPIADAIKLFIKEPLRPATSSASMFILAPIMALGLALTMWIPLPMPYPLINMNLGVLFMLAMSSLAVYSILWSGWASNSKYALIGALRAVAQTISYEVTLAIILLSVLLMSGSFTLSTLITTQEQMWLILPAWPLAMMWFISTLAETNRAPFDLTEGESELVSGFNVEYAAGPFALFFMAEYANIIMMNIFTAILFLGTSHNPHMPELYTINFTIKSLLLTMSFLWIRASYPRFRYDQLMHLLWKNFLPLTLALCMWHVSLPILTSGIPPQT
Sequence of bovine heart mitochondrial membranes (complex I) (P03898 whole entry): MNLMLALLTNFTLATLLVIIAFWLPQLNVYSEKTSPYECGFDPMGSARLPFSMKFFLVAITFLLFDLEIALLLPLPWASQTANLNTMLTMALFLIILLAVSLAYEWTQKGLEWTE
Method: (§1) Complex I and mitochondrial membranes were prepared from Bos taurus (bovine) heart. Intact mitochondria were isolated from rat liver and mouse heart and liver. Membranes were prepared from mouse heart mitochondria by 5 s bursts of sonication at 4 °C and collected by centrifugation (75,000 × g, 1 h).
(§2) Assays were performed at 32 °C in a SpectraMax 96-well plate reader. NADH:decylubiquinone oxidoreduction by complex I at 0.5 μg mL^−1 was measured in 20 mM Tris-HCl (pH 7.2), 0.15 % soy bean asolectin (Avanti Polar Lipids), and 0.15 % 3-((3-cholamidopropyl)dimethylammonium)-1-propanesulfonate (CHAPS, Merck Chemicals Ltd), with 200 μM decylubiquinone and 200 μM NADH, and monitored using ε340–380(NADH) = 4.81 mM^−1 cm^−1 [23]. Catalysis was initiated by addition of NADH and maximal rates determined by linear regression. NADH:O2 oxidoreduction by membranes was measured similarly but using 5 μg mL^−1 membranes in 10 mM Tris-HCl (pH 7.4) and 250 mM sucrose using 200 μM NADH and supplemented with 0.15 mM horse heart cytochrome c (Sigma-Aldrich Ltd.). Succinate:O2 oxidoreduction was measured using 40 μg mL^−1 membranes in 5 mM succinate in 10 mM Tris-HCl (pH 7.4) as described previously. Control experiments included NaCl (to match the ionic strength) or DMSO, as appropriate.
(§3) Experimental values are reported as mean averages ± standard deviation (SD) of technical replicates for large sample sizes and mean averages ± standard error of the mean (SEM) of technical replicates for small sample sizes. Data were analyzed by the unpaired two-tailed Student’s t test. IC50 values were determined using the standard dose-effect relationship (activity (%) = 100 × IC50 / (IC50 + [inhibitor]^m) with the Hill Slope (m) set to unity for purified complex I) and are reported with 95 % confidence intervals.

[2] = target: mouse heart mitochondrial membranes (complex I) (Mus musculus, UniProt P03888+P03899+Q91WD5+Q9DC70); assay: NADH:O2 oxidoreduction by mouse heart mitochondrial membranes; type: biochemical; settings: for LogIC50 (best fit value): log of IC50 in mM
Sequence of mouse heart mitochondrial membranes (complex I) (P03899 whole entry): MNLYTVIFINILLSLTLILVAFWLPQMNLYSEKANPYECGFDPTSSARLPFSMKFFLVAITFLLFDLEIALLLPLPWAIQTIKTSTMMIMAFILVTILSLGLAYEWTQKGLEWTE
Sequence of mouse heart mitochondrial membranes (complex I) (P03888 whole entry): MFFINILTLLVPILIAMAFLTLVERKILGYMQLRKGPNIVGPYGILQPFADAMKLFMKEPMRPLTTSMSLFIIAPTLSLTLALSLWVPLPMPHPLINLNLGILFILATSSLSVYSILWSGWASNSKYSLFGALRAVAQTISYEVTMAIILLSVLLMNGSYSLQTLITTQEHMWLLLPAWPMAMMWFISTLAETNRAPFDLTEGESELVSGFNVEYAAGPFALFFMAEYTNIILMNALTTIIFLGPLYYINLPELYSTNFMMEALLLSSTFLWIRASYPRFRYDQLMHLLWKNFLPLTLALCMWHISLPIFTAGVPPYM
Sequence of mouse heart mitochondrial membranes (complex I) (Q9DC70 36-224): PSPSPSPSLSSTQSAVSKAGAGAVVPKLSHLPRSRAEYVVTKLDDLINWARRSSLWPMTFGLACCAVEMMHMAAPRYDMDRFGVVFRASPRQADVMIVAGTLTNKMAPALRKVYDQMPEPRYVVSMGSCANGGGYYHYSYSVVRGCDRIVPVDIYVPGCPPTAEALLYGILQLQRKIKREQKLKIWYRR
Sequence of mouse heart mitochondrial membranes (complex I) (Q91WD5 34-463): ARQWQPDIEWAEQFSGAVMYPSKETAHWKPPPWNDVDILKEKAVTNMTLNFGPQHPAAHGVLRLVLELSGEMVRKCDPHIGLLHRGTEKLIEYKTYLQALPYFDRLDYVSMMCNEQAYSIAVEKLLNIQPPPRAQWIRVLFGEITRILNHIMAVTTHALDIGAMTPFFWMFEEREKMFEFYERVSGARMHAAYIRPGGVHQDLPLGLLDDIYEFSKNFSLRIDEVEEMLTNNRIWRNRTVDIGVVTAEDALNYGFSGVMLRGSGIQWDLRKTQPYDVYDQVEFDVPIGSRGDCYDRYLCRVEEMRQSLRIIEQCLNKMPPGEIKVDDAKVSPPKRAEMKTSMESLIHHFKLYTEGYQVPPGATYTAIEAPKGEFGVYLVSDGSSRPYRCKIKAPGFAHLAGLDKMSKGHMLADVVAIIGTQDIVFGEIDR
Method: as §1, §2, §3

[3] = system: HepG2 cells; assay: Rotenone-sensitive oxygen consumption rate in intact HepG2 cells; type: cell-based, human; settings: for rotenone sensitive OCR after 6 hours of biguanide exposure, % control, average / rotenone sensitive OCR after 6 hours of biguanide exposure, average: HEPG2 cells, biguanide at IC50/10; for rotenone sensitive OCR after 6 hours of biguanide exposure, average: OCR normalized to OCR immediately prior to biguanide addition; for inhibition of rotenone-sensitive respiration (in words): intact HepG2 cells, biguanide at IC50/10, monitored for 6 h
Method: 143B (CRL-8303 from ATCC), HepG2 (85011430 from The Health Protection Agency), and MDBK (CCL-22 from ATCC) cells were grown on Dulbecco’s modified Eagle’s medium (DMEM) supplemented with 10 % fetal bovine serum (FBS, Thermo Fisher Scientific) at 37 °C in 5 % CO2. All cells were confirmed as negative for mycoplasma.
Oxygen consumption rates (OCRs) were measured using a Seahorse XF96 extracellular flux analyzer at 37 °C. For intact cell measurements, 1.4 × 10^4 143B, HepG2, or MDBK cells were plated (per well) in DMEM containing 10 % FBS into Seahorse Bioscience Inc. XF96 plates and incubated for ~12 h at 37 °C in 5 % CO2. Then, the medium was exchanged for assay buffer containing DMEM, 4.5 g L^−1 glucose, 1 mM pyruvate, 32 mM NaCl, 2 mM GlutaMAX, 15 mg L^−1 phenol red, and 20 mM HEPES (pH 7.4 at 37 °C) and the cells placed in a CO2-free incubator at 37 °C for 30 min. Basal oxygen consumption rates were established before the addition of biguanides at one-tenth of their IC50 (IC50/10), and followed for ~ 6 h before the addition of rotenone (2 μM).
Rotenone-sensitive OCRs were calculated by subtracting the rotenone-insensitive rates (determined at the end of the experiment). OCRs were normalized by dividing by the OCR recorded immediately prior to the addition of biguanide. For rate of uptake calculations, the OCRs at time points after biguanide addition were divided by the OCRs at the same time points in control experiments. Data from wells with failed port injections were excluded from the analyses. The respiratory control ratio (RCR) values (state III versus state IV respiration) were ~11 and ~6 for permeabilized MDBK and 143B cells, respectively.

[4] = system: AMPK-α (phospho-Thr172); assay: AMPK activation, western blot of phospho-AMPK-α in MDBK cells; type: cell-based, Bos taurus; settings: for p-alpha, average normalised to control: Averages of experiments 1-3, 18 hours; for p-alpha: band intensity
Method: MDBK cells were seeded at 1 × 10^6 cells per 6 cm dish in DMEM containing 10 % FBS. […] After 18 h cells were harvested by a rapid lysis procedure: cells were rinsed with PBS, then lysed using ice-cold buffer containing 50 mM HEPES, 1 mM EDTA, 10 % glycerol, 50 mM NaF, 5 mM sodium pyrophosphate, 1 % Triton-X100, 1 mM dithiothreitol (DTT), and a protease inhibitor cocktail (Roche). The cell lysate was centrifuged at 14,000 × g for 20 min at 4 °C and the protein concentration of the supernatant determined by bicinchoninic acid assay. The lysate was analyzed using Novex 3–12 % bis-Tris gels run in 3-(N-morpholino)propanesulfonic acid (MOPS) buffer (20 μg of protein per lane) followed by transfer to low fluorescence polyvinylidene fluoride membranes by wet transfer. Primary rabbit antibodies for AMPK-β (57C12), AMPK-α (phospho-Thr172) (40H9), and acetyl-coA carboxylase (phospho-Ser79) (Cell Signaling Technology) were incubated overnight with the membrane (1:1000 dilution) in Odyssey blocking buffer at 4 °C. A fluorescent secondary antibody was used (IRDYE800CW from LI-COR Biosciences, 1:20,000 dilution) with a LI-COR Odyssey imaging system.

[5] = log of concentration in mM; sample given as Bovine heart mitochondrial membranes; Prism variable slope fit, Bottom 0, Top 100
[6] = sample given as Bovine heart mitochondrial membranes; Prism log(inhibitor) vs. response variable slope fit (four parameters), Bottom 0, Top 100; read-out: IC50 (best fit value)
[7] = sample given as Bovine heart mitochondrial membranes; Prism variable slope fit, Bottom 0, Top 100
[8] = Prism variable slope fit, Bottom 0, Top 100, read-out: IC50 (best fit value)
[9] = bovine heart mitochondrial membranes; inhibitor 0.025 mM; read-out: average % (rate, % of no-inhibitor control)
[10] = bovine heart mitochondrial membranes; inhibitor 0.05 mM; read-out: average % (rate, % of no-inhibitor control)
[11] = bovine heart mitochondrial membranes; inhibitor 0.25 mM; read-out: average % (rate, % of no-inhibitor control)
[12] = bovine heart mitochondrial membranes; inhibitor 0.50 mM; read-out: average % (rate, % of no-inhibitor control)

Row | SMILES | LogIC50 (best fit value) [1, 5] | IC50 [1, 6] [µM] | HillSlope (best fit value) [1, 7] | HillSlope (best fit value) ([2]; Prism variable slope fit) | IC50 [2, 8] [µM] | LogIC50 (best fit value) ([2]; Prism variable slope fit) | rotenone sensitive OCR after 6 hours of biguanide exposure, % control, average [3] [% control] | rotenone sensitive OCR after 6 hours of biguanide exposure, average [3] | inhibition of rotenone-sensitive respiration (in words) [3] | p-alpha, average normalised to control [4] | p-alpha / AMPK beta ([4]; Experiment 1, 18 hours) | p-alpha / AMPK beta normalised to control ([4]; Experiment 1, 18 hours) | p-alpha ([4]; Experiment 1, 18 hours) | p-alpha / AMPK beta ([4]; Experiment 2, 18 hours) | p-alpha / AMPK beta normalised to control ([4]; Experiment 2, 18 hours) | p-alpha ([4]; Experiment 2, 18 hours) | p-alpha / AMPK beta ([4]; Experiment 3, 18 hours) | p-alpha / AMPK beta normalised to control ([4]; Experiment 3, 18 hours) | p-alpha ([4]; Experiment 3, 18 hours) | remaining activity at 25 µM [1, 9] [%] | other results
1 | CC(C)N=C(N)N=C(N)N [compound 4, 1-(diaminomethylidene)-2-(propan-2-yl)guanidine] | 1.46 | 28800 | -1.156 | -1.082 | 30100 | 1.478 | 0.42 | 0.43 | inhibit respiration | 12.85 | 1.65 | 13.27 | 732 | 1.91 | 13.08 | 500 | 2.53 | 12.19 | 499 | – | remaining activity at 620 µM ([1]; bovine heart mitochondrial membranes; inhibitor 0.62 mM; read-out: average % (rate, % of no-inhibitor control)): 96.7%; remaining activity at 1560 µM ([1]; bovine heart mitochondrial membranes; inhibitor 1.56 mM; read-out: average % (rate, % of no-inhibitor control)): 95.7%; remaining activity at 3120 µM ([1]; bovine heart mitochondrial membranes; inhibitor 3.12 mM; read-out: average % (rate, % of no-inhibitor control)): 92.6%; remaining activity at 6250 µM ([1]; bovine heart mitochondrial membranes; inhibitor 6.25 mM; read-out: average % (rate, % of no-inhibitor control)): 84.6%; remaining activity at 12500 µM ([1]; bovine heart mitochondrial membranes; inhibitor 12.50 mM; read-out: average % (rate, % of no-inhibitor control)): 72.6%; remaining activity at 25000 µM ([1]; bovine heart mitochondrial membranes; inhibitor 25.00 mM; read-out: average % (rate, % of no-inhibitor control)): 56.6%; remaining activity at 50000 µM ([1]; bovine heart mitochondrial membranes; inhibitor 50.00 mM; read-out: average % (rate, % of no-inhibitor control)): 32.5%; remaining activity at 620 µM ([2]; inhibitor 0.62 mM, read-out: average % (rate, % of no-inhibitor control)): 103%; remaining activity at 1320 µM ([2]; inhibitor 1.32 mM, read-out: average % (rate, % of no-inhibitor control)): 99.1%; remaining activity at 3120 µM ([2]; inhibitor 3.12 mM, read-out: average % (rate, % of no-inhibitor control)): 93.2%; remaining activity at 6250 µM ([2]; inhibitor 6.25 mM, read-out: average % (rate, % of no-inhibitor control)): 80.8%; remaining activity at 15600 µM ([2]; inhibitor 15.60 mM, read-out: average % (rate, % of no-inhibitor control)): 67.2%; remaining activity at 62500 µM ([2]; inhibitor 62.50 mM, read-out: average % (rate, % of no-inhibitor control)): 30.7%; estimated rate of uptake into mitochondria ([3]; HepG2 cells, 3 mM in the extracellular medium): > 1.5 mM/min
2 | CC(C)N=C(N)N=C(N)NC(C)C [compound 5, N-(propan-2-yl)-1-3-(propan-2-yl)carbamimidamidomethanimidamide] | -0.4916 | 322 | -0.7631 | -1.037 | 292 | -0.5351 | 88.37 | 91.14 | do not | 1.21 | 0.13 | 1.05 | 62.5 | 0.17 | 1.19 | 52.5 | 0.29 | 1.38 | 51.1 | 88.2 | remaining activity at 50 µM [1, 10]: 80.7%; remaining activity at 120 µM ([1]; bovine heart mitochondrial membranes; inhibitor 0.12 mM; read-out: average % (rate, % of no-inhibitor control)): 67.1%; remaining activity at 250 µM [1, 11]: 53.5%; remaining activity at 500 µM [1, 12]: 42.4%; remaining activity at 1000 µM ([1]; bovine heart mitochondrial membranes; inhibitor 1.00 mM; read-out: average % (rate, % of no-inhibitor control)): 30.7%; remaining activity at 2000 µM ([1]; bovine heart mitochondrial membranes; inhibitor 2.00 mM; read-out: average % (rate, % of no-inhibitor control)): 19.2%
3 | [H]/N=C(\N/C(=N/[H])Nc1ccc(Cl)cc1)NC(C)C [proguanil, reference compound] | -1.788 | – | -1.025 | -0.7979 | – | -1.959 | 93.06 | 95.98 | – | 1.33 | 0.15 | 1.20 | 71.3 | 0.19 | 1.32 | 68.2 | 0.30 | 1.47 | 59.7 | 41.4 | remaining activity at 5 µM ([1]; bovine heart mitochondrial membranes; inhibitor 0.005 mM; read-out: average % (rate, % of no-inhibitor control)): 76.5%; remaining activity at 12.5 µM ([1]; bovine heart mitochondrial membranes; inhibitor 0.0125 mM; read-out: average % (rate, % of no-inhibitor control)): 56.2%; remaining activity at 50 µM [1, 10]: 24.9%; remaining activity at 100 µM ([1]; bovine heart mitochondrial membranes; inhibitor 0.10 mM; read-out: average % (rate, % of no-inhibitor control)): 7.77%; remaining activity at 250 µM [1, 11]: 6.98%; remaining activity at 500 µM [1, 12]: 7.97%; IC50 ([1]; read-out: IC50 (best fit value); sample given as Bovine heart mitochondrial membranes; Prism log(inhibitor) vs. response variable slope fit (four parameters), Bottom 0, Top 100): 16.3 µM; IC50 ([2]; read-out: IC50 (best fit value), Prism variable slope fit, Bottom 0, Top 100): 11 µM
